Experimental findings from a melting point compilation (Tetko et al.; mined from patent text by program, amines drawn as free bases though some values may be those of a salt) are described below.

The melting point is the temperature, or range, at which the solid turns liquid. With `Cc1nc2cccc3c(=O)n(CCCCNS(=O)(=O)C(F)(F)F)c(=O)c1n23`, the melting point was in the range of 181 to 182 °C.

`CC(C)(COCc1cccc(Oc2ccccc2)c1)c1ccc(O)c(Cl)c1` returned a melting point of 68 to 69 °C.

As to `COc1ccc(OC)c(OC)c1OC`, the melting point was 84 to 85 °C.

Turning to `COc1ccc2[nH]c3c(c2c1)CC(OC(=O)c1ccccc1)CC3` (configuration not stated), the melting point fell in the range of 135 to 141 °C.

In the case of `Nc1ccc(N2CCOCC2)c(C(F)(F)F)c1`, the melting point was 149 to 151 °C.

`Cc1cc(C)cc(SCC(=O)c2ccc(C(C)C)cc2)c1` had a melting point of 46 to 47 °C.

`COc1ccc(-c2csc(Nc3ccc(C)cn3)n2)c(OC)c1` came in with a melting point of 157 to 158 °C.

Molecule `CCC(=CC(CNC(=O)c1cnccn1)=NO)C(C)[N+](=O)[O-]` (configuration not stated) had a melting point of 120 to 121 °C.

`COc1ccc(CSc2nc3cnccc3[nH]2)cc1` returned a melting point of 160 to 161 °C.

`OCc1cn(-c2ccc(OC(F)(F)F)c(Cl)c2)cn1` registered a melting point of 115 to 116 °C.

Consider `NC(=O)c1c(I)c(C(=O)N(CC(O)CO)CC(O)CO)c(I)c(N2CCCCC2=O)c1I` (configuration not stated), for which the melting point lay within 214 to 219 °C.

For the molecule `Cc1c([N+](=O)[O-])cc(S(F)(F)(F)(F)F)cc1[N+](=O)[O-]`, the melting point was 108 to 109 °C.

In turn, `CCCCc1cc2cc(N)ccn2c1C(=O)c1ccc(OCCCN(CCCC)CCCC)cc1` showed a melting point of 88 to 89 °C.

Molecule `O=S(=O)(Nc1ncc(Br)nc1OCc1cnccn1)c1cccc(Cl)c1Cl` came in with a melting point of 207 to 209 °C.

For `O=C(O)c1cc(Br)nn1-c1ncccc1Cl`, the melting point was in the range of 200 to 201 °C.

`NS(=O)(=O)c1ccc(-n2nc(C(F)(F)F)c(CO)c2-c2ccccc2)cc1`: the melting point lay in the range of 179 to 180 °C.

The molecule `Cc1c(C(=O)Nc2ccc(N3CCC(N4CCOCC4)CC3)c(C#N)c2)cnn1-c1ccccc1Cl` came in with a melting point of 218 °C.

Consider `Cc1nc2cnccc2n1-c1ccc2c(c1)CC(C#N)C2` (configuration not stated), for which the melting point is 174 to 176 °C.

On to `CCn1cc(C(=O)NCc2ccc(Cl)cc2)c(=O)c2cc(C#CCCO)sc21`, for which the melting point was 158 to 162 °C.

The molecule `COc1cc(-c2ccn(C)n2)cc2oc(=O)c(C)c(C)c12` had a melting point of 135 °C.

For `CC(C)(C)N(NC(=O)c1cccs1)C(=O)c1ccccc1`, the melting point was more than 190 °C.

As for `O=C(Nc1nc(C(F)(F)C(F)(F)F)c(CO)s1)c1cc(C(F)(F)F)cc(C(F)(F)F)c1`, the melting point lay in the range of 164 to 165 °C.

Turning to `Cc1nc(Cl)c2c(c1O)COC2(C)c1ccccc1` (configuration not stated), the melting point stood at 246 °C.

In turn, `COC(=O)Cn1c(C)cc(O)c([N+](=O)[O-])c1=O` showed a melting point of 187 °C.

As for `CCn1nc(OCC(=O)c2cccs2)c(-c2ccc(F)cc2)c1-c1ccc(S(C)(=O)=O)cc1`, the melting point was 163 to 164 °C.

With `CCOC(=O)c1cnc2n(c1=O)-c1ccccc1N(C(C)=O)C2`, the melting point is 152 to 155 °C.

Molecule `N#Cc1ccc2c(c1)C=C(C(=O)O)C(C(F)(F)F)O2` (configuration not stated) showed a melting point of 102 to 106 °C.

As to `Nc1ccc(-c2nnc(-c3ccccn3)nn2)nc1`, the melting point lay in the range of 207 to 209 °C.

As for `O=C(Nc1cc(C(F)(F)F)cc2c(Cl)ccnc12)c1c(Cl)cccc1Cl`, the melting point is 150 to 157 °C.

Molecule `CC(C)(C)OC(=O)NCC(=O)Nc1cccc(NC(=O)C(=O)N2CCC(Cc3ccccc3)CC2)c1` gave a melting point of 81 to 85 °C.

With `Nc1sc2c(c1C(=O)c1ccc(Br)c3ccccc13)CCCC2`, the melting point lay within 176 to 178 °C.

For the molecule `CC(=O)C(=O)Nc1ccc(-c2ccc(C(=O)O)c(=O)[nH]2)cc1`, the melting point was more than 280 °C.

In the case of `CCCCCCCCCCCCC1(C(C(=O)Nc2c(C(C)C)cccc2C(C)C)c2ccccc2)C=CNO1` (configuration not stated), the melting point was 107 to 108 °C.

Regarding `CC(=O)Nc1c(C(=O)c2cccc(C)n2)[nH]c2cc(Cl)c(Br)cc12`, the melting point is 234 to 236 °C.

The molecule `COC(=O)c1ccc(SC)cc1N` displayed a melting point of 57 to 59 °C.

Consider `Cc1ccc(S(=O)(=O)OCC2CN(C(=O)Oc3ccccc3)CCO2)cc1` (configuration not stated), for which the melting point is 101 to 103 °C.

For the molecule `COc1cc2c3c(cccc3c1N1CCC(N)C1)C(=O)N(O)C2=O` (configuration not stated), the melting point was 217 to 222 °C.

`Cc1ccc2ccc(N3C(=O)c4ccccc4C3OC(=O)CCCC(C)C)nc2n1` (configuration not stated) yielded a melting point of 144 °C.

On to `CC(C)C(c1cnccc1C(F)(F)F)N(C)C(=O)Cc1ccccc1` (configuration not stated), for which the melting point was determined as 71.2 °C.

For `CN1CC=C(c2ccccc2Cc2ccccc2)CC1`, the melting point was in the range of 55 to 57 °C.

In turn, `CC(=O)C(CC(C)C)NC(=O)CCOc1ccc([N+](=O)[O-])cc1` (configuration not stated) gave a melting point of 101 to 102 °C.

The molecule `CCN(CC)c1ccc(-c2cc(-c3ccc(C(=O)O)cc3)ccc2CCCO)cc1C(C)(C)C` returned a melting point of 95 °C.

With `Cc1ccc(C(=O)C(O)[C@H]2OC[C@@H](n3cc(I)c(=O)n(C(=O)c4ccc(C)cc4)c3=O)O2)cc1` (some centres not stated), the melting point fell in the range of 166 to 168 °C.

In the case of `O=C(O)CC(O)(CC(=O)O)C(F)(F)F`, the melting point lay in the range of 102 to 105 °C.

`COc1cccc(C2C(CN(C)C)CC(=O)N2c2ccccc2)c1` (configuration not stated) displayed a melting point of 88 to 92 °C.

Consider `CCOC(=O)[C@H](Cc1ccc(-c2c(C)n(C)c(=O)n(C)c2=O)cc1)NC(=O)c1c(F)cccc1F`, for which the melting point was 218 to 219 °C.

Turning to `CCOC(=O)c1ccc(-c2cc(C(=O)OCC)c(N)[nH]2)cc1`, the melting point was 150 to 151 °C.

`COC(=O)c1cn(CCN)c(Cl)c1-c1cccc(C#N)c1`: the melting point lay within 111 to 113 °C.

Take `Cn1cncc1C(O)(c1ccc(I)cc1)c1ccc2c(c1)c(-c1cccc(Cl)c1)cc(=O)n2C` (configuration not stated): the melting point was 197 °C.

`COc1ccc(-c2c(/C=C/C(=O)Oc3ccc([N+](=O)[O-])cc3)ccc3cc(OC)ccc23)cc1` displayed a melting point of 160 to 161 °C.

`COc1ccccc1-n1nnc2cc(F)c(N3C(=O)C4=C(CCCC4)C3=O)cc21` yielded a melting point of 83 to 87 °C.

`COc1ccc(OC)c2c1C=CNC(=O)C2` gave a melting point of 188 to 191 °C.

`COC(=O)CCc1cc2cc(C(F)(F)F)ccc2n1S(=O)(=O)c1ccccc1` came in with a melting point of 81 to 83 °C.

In turn, `C=CC1(CC(N)=O)CC(C)(C)CC(C)(C)C1` showed a melting point of 44 to 46 °C.

For `CN(CCc1cccc(OCC(=O)O)c1)c1cnc(-c2ccccc2)c(-c2ccccc2)n1`, the melting point was 174 to 176 °C.

The molecule `CC(C)(CNC(=O)Cc1ccccc1)NCC(O)c1cc(Cl)c(NC(=O)C(C)(C)C)c(Cl)c1` (configuration not stated) displayed a melting point of 83 to 85 °C.

With `N#Cc1ccc(C(=O)N2CCc3cc(S(=O)(=O)N4CC(c5ccccc5)NC4=O)ccc32)cc1` (configuration not stated), the melting point was 241 to 243 °C.

Molecule `C=CC[C@H]1C(=O)N(S(=O)(=O)c2cccc(S(=O)(=O)N(C)C)c2)[C@H]2CCN(C(=O)OCc3ccccc3)[C@H]12` (relative stereo) gave a melting point of 70 to 75 °C.

For the molecule `Nc1nc(Nc2ccccc2)c2[nH]cnc2n1`, the melting point worked out at 126 °C.

The molecule `COc1ccnc(OC)c1CON=C(C#N)c1cc(C)cc(C)n1` yielded a melting point of 196 to 201 °C.

Regarding `CCOC(C)OC(C)(C)CCCC(C)C1CCC2C3CC=C4CC(O)CC(O)C4(C)C3CCC12C` (configuration not stated), the melting point was 128 to 130 °C.

The molecule `COc1ccc2c(c1)C(=O)N(c1ccc3[nH]c(=O)ccc3c1)C2` displayed a melting point of 305 to 310 °C.
